Results as given in publication PMC11497361 (Current Research in Microbial Sciences, 2024).

Biological target: WNV NS5 WT
Assay: MTase-Glo luminescence methyltransferase assay
Assay type: biochemical, Orthoflavivirus nilense
Conditions: poly-A RNA acceptor, 20 µM SAM, pH 9, 30 °C, 25 min; MTase activity

| SMILES | IC50 [µM] |
| --- | --- |
| Nc1ncnc2c1ncn2[C@@H]1O[C@H](CNC(=O)C(c2ccccc2)(c2ccccc2)c2ccccc2)[C@@H](O)[C@H]1O [compound 1, 5´-(2,2,2-triphenylacetamide)-5´-deoxyadenosine] | 21.6 ± 11.1 |
| Nc1ncnc2c1ncn2[C@@H]1O[C@H](C[C@@H](N)CC[C@H](N)C(=O)O)[C@@H](O)[C@H]1O [sinefungin] | 3.6 ± 1.8 |
